Data taken from paper PMC10350928 (Journal of Medicinal Chemistry, 2023).
Like-named read-outs stand apart in the source and are kept apart here.

Tests used:
[1] = tested on: Rat hepatocytes; assay: Rat hepatocyte Clint; conditions: for RH: rat hepatocytes; for Hepatocytes Rat: Table 4
[2] = molecular target: T1, WT c-MET (Homo sapiens, UniProt P08581); assay type: binding; conditions: Table 1; LLE = pKd – log D
[3] = molecular target: T1, WT c-MET; assay type: biochemical; conditions: LLE = pIC50 – log D
[4] = Human liver microsome Clint
[5] = tested on: Human hepatocytes; assay: Human hepatocyte Clint; conditions: Table 4
[6] = Rat plasma pharmacokinetics; conditions: male, Han Wistar, iv, 0.5 mg/kg
[7] = tested on: c-MET; conditions: read-out: cell IC50 c-MET; cited from earlier work
[8] = tested on: RON; conditions: read-out: cell IC50 RON; cited from earlier work
[9] = molecular target: T1, WT c-MET; assay type: binding; conditions: adenosine 500 μM, WT c-MET 7.4 μM, compound 100 μM
[10] = Table 3, human liver microsomes

## CC(c1ccccc1)n1cc(-c2ccc3[nH]ccc3c2)c(=O)[nH]c1=O (centres unmarked) [Compound 14, 5-(1H-Indol-5-yl)-1-(1-phenylethyl)pyrimidine-2,4(1H,3H)-dione]
[1]; Table 1
  RH: 217 μL/min/10^6 cells
[2]
  SPR assay LLE WT: 3.4/3.4

## CC(c1ccccc1)n1cc(-c2c(F)ccc3cn[nH]c23)c(=O)[nH]c1=O (centres unmarked) [Compound 20, 5-(6-Fluoro-1H-indazol-7-yl)-1-(1-phenylethyl)pyrimidine-2,4(1H,3H)-dione]
[3]; Table 2
  ADP-Glo assay LLE WT: 3.2
[1]; Table 2
  RH: 28.3 μL/min/10^6 cells

## C#Cc1n[nH]c2c(-c3cn([C@@H](C)c4ccccn4)c(=O)[nH]c3=O)cc(F)cc12 [Compound 32, (S)-5-(3-Ethynyl-5-fluoro-1H-indazol-7-yl)-1-(1-(pyridin-2-yl)ethyl)pyrimidine-2,4(1H,3H)-dione]
[3]; Table 3
  ADP-Glo assay LLE WT: 5.1
[1]; Table 3
  RH: 6.07 μL/min/10^6 cells

## CC(c1cccc(-c2c[nH]cn2)c1)n1cc(-c2cc(F)cc(F)c2)c(=O)[nH]c1=O (centres unmarked) [Compound 10, 1-(1-(3-(1H-Imidazol-5-yl)phenyl)ethyl)-5-(3,5-difluorophenyl)pyrimidine-2,4(1H,3H)-dione]
[1]; Table 1
  RH: 6.03 μL/min/10^6 cells
[2]
  SPR assay LLE WT: 3.1

## CC(c1ccccc1)n1cc(-c2cc(F)cc3cn[nH]c23)c(=O)[nH]c1=O (centres unmarked) [Compound 21, 5-(5-Fluoro-1H-indazol-7-yl)-1-(1-phenylethyl)pyrimidine-2,4(1H,3H)-dione]
[3]; Table 2
  ADP-Glo assay LLE WT: 3.9
[1]; Table 2
  RH: 14.0 μL/min/10^6 cells

## CC(c1cccc(Cl)c1)n1cc(-c2cc(F)cc(F)c2)c(=O)[nH]c1=O (centres unmarked) [Compound 7, 1-(1-(3-Chlorophenyl)ethyl)-5-(3,5-difluorophenyl)pyrimidine-2,4(1H,3H)-dione]
[1]; Table 1
  RH: 177 μL/min/10^6 cells
[2]
  SPR assay LLE WT: 2.2

## CC(c1cccc(-c2cn[nH]c2)c1)n1cc(-c2cc(F)cc(F)c2)c(=O)[nH]c1=O (centres unmarked) [Compound 9, 1-(1-(3-(1H-Pyrazol-4-yl)phenyl)ethyl)-5-(3,5-difluorophenyl)pyrimidine-2,4(1H,3H)-dione]
[1]; Table 1
  RH: 22.3 μL/min/10^6 cells
[2]
  SPR assay LLE WT: 2.7

## O=c1[nH]c(=O)n(Cc2ccccc2)cc1-c1cc(F)cc(F)c1 [Compound 4, 1-Benzyl-5-(3,5-difluorophenyl)pyrimidine-2,4(1H,3H)-dione]
[1]; Table 1
  RH: 76.7 μL/min/10^6 cells
[2]
  SPR assay LLE WT: <1.0/<1.0

## CC(c1ccccc1Cl)n1cc(-c2cc(F)cc(F)c2)c(=O)[nH]c1=O (centres unmarked) [Compound 5, 1-(1-(2-Chlorophenyl)ethyl)-5-(3,5-difluorophenyl)pyrimidine-2,4(1H,3H)-dione]
[1]; Table 1
  RH: 227 μL/min/10^6 cells
[2]
  SPR assay LLE WT: 0.82

## C#Cc1n[nH]c2c(-c3cn(C(C)c4ccccn4)c(=O)[nH]c3=O)cc(F)cc12 (centres unmarked) [Compound 31, 5-(3-Ethynyl-5-fluoro-1H-indazol-7-yl)-1-(1-(pyridin-2-yl)ethyl)pyrimidine-2,4(1H,3H)-dione]
[4]; [10]
  HLM: <3.00 µL/min/mg
[4]; Table 4
  HLM: <3.00 µL/min/mg
[5]
  Hepatocytes Human: 1.29 μL/min/10^6 cells
[3]; Table 3
  ADP-Glo assay LLE WT: 4.8
[1]; Table 3
  RH: 4.81 μL/min/10^6 cells
[1]
  Hepatocytes Rat: 4.81 μL/min/10^6 cells
[6]
  clearance: 13 mL/min/kg

## CC(c1ccccn1)n1cc(-c2cc(F)cc3c(C#N)n[nH]c23)c(=O)[nH]c1=O (centres unmarked) [Compound 23, 7-(2,4-Dioxo-1-(1-(pyridin-2-yl)ethyl)-1,2,3,4-tetrahydropyrimidin-5-yl)-5-fluoro-1H-indazole-3-carbonitrile]
[3]; Table 3
  ADP-Glo assay LLE WT: 3.8
[1]; Table 3
  RH: 3.08 μL/min/10^6 cells

## C[C@@H](c1ccccc1)n1cc(-c2cc(F)cc(F)c2)c(=O)[nH]c1=O [Compound 3, (S)-5-(3,5-Difluorophenyl)-1-(1-phenylethyl)pyrimidine-2,4(1H,3H)-dione]
[1]; Table 1
  RH: 133 μL/min/10^6 cells
[2]
  SPR assay LLE WT: 2.9

## CC(c1ccccc1)n1cc(-c2cccc3c(F)n[nH]c23)c(=O)[nH]c1=O (centres unmarked) [Compound 17, 5-(3-Fluoro-1H-indazol-7-yl)-1-(1-phenylethyl)pyrimidine-2,4(1H,3H)-dione]
[3]; Table 2
  ADP-Glo assay LLE WT: 3.1
[1]; Table 2
  RH: 49.4 μL/min/10^6 cells

## CC(c1ccccc1)n1cc(-c2ccccc2)c(=O)[nH]c1=O (centres unmarked) [Compound 11, 5-Phenyl-1-(1-phenylethyl)pyrimidine-2,4(1H,3H)-dione]
[1]; Table 1
  RH: 185 μL/min/10^6 cells

## CC(c1cccc(-c2cc[nH]n2)c1)n1cc(-c2cc(F)cc(F)c2)c(=O)[nH]c1=O (centres unmarked) [Compound 8, 1-(1-(3-(1H-Pyrazol-3-yl)phenyl)ethyl)-5-(3,5-difluorophenyl)pyrimidine-2,4(1H,3H)-dione]
[1]; Table 1
  RH: 24.7 μL/min/10^6 cells
[2]
  SPR assay LLE WT: 2.1

## CC(c1ccc(F)cc1)n1cc(-c2cc(F)cc3cn[nH]c23)c(=O)[nH]c1=O (centres unmarked) [Compound 26, 5-(5-Fluoro-1H-indazol-7-yl)-1-(1-(4-fluorophenyl)ethyl)pyrimidine-2,4(1H,3H)-dione]
[3]; Table 3
  ADP-Glo assay LLE WT: 3.5
[1]; Table 3
  RH: 11.9 μL/min/10^6 cells

## C#Cc1n[nH]c2c(-c3cn(C(C)c4ccccc4)c(=O)[nH]c3=O)cc(F)cc12 (centres unmarked) [Compound 29, 5-(3-Ethynyl-5-fluoro-1H-indazol-7-yl)-1-(1-phenylethyl)pyrimidine-2,4(1H,3H)-dione]
[4]; [10]
  HLM: 12.2 µL/min/mg
[4]; Table 4
  HLM: 12.2 µL/min/mg
[5]
  Hepatocytes Human: 4.27 μL/min/10^6 cells
[1]; Table 3
  RH: 5.99 μL/min/10^6 cells
[1]
  Hepatocytes Rat: 5.99 μL/min/10^6 cells
[6]
  clearance: 60 mL/min/kg

## CC(c1ccccc1)n1cc(-c2cccc3cn[nH]c23)c(=O)[nH]c1=O (centres unmarked) [Compound 15, 5-(1H-Indazol-7-yl)-1-(1-phenylethyl)pyrimidine-2,4(1H,3H)-dione]
[3]; Table 2
  ADP-Glo assay LLE WT: 3.5
[1]; Table 1
  RH: 46.1 μL/min/10^6 cells
[2]
  SPR assay LLE WT: 4.2

## CC(c1ccccc1)n1cc(-c2cc(F)cc(F)c2)c(=O)[nH]c1=O (centres unmarked) [Compound 2, 5-(3,5-Difluorophenyl)-1-(1-phenylethyl)pyrimidine-2,4(1H,3H)-dione]
[9]
  competition with adenosine for binding to WT c-MET: clear competition
[1]; Table 1
  RH: 123 μL/min/10^6 cells
[2]
  SPR assay LLE WT: 2.4

## C[C@@H](c1ccc(F)cc1)n1cc(-c2cc(F)cc3c(C#N)n[nH]c23)c(=O)[nH]c1=O [Compound 25, (S)-5-Fluoro-7-(1-(1-(4-fluorophenyl)ethyl)-2,4-dioxo-1,2,3,4-tetrahydropyrimidin-5-yl)-1H-indazole-3-carbonitrile]
[5]
  Hepatocytes Human: 2.48 μL/min/10^6 cells
[3]; Table 3
  ADP-Glo assay LLE WT: 3.8
[1]; Table 3
  RH: 5.13 μL/min/10^6 cells
[1]
  Hepatocytes Rat: 5.13 μL/min/10^6 cells
[6]
  clearance: 3 mL/min/kg

## C#Cc1n[nH]c2c(-c3cn(C(C)c4ccccc4)c(=O)[nH]c3=O)cccc12 (centres unmarked) [Compound 28, 5-(3-Ethynyl-1H-indazol-7-yl)-1-(1-phenylethyl)pyrimidine-2,4(1H,3H)-dione]
[3]; Table 3
  ADP-Glo assay LLE WT: 4.2
[1]; Table 3
  RH: 9.10 μL/min/10^6 cells

## CC(c1ccc(F)cc1)n1cc(-c2cc(F)cc3c(C#N)n[nH]c23)c(=O)[nH]c1=O (centres unmarked) [Compound 24, 5-Fluoro-7-(1-(1-(4-fluorophenyl)ethyl)-2,4-dioxo-1,2,3,4-tetrahydropyrimidin-5-yl)-1H-indazole-3-carbonitrile]
[3]; Table 3
  ADP-Glo assay LLE WT: 3.4
[1]; Table 3
  RH: 4.40 μL/min/10^6 cells

## CC(c1ccccc1)n1cc(-c2ncccn2)c(=O)[nH]c1=O (centres unmarked) [Compound 13, 1′-(1-Phenylethyl)-[2,5′-bipyrimidine]-2′,4′(1′H,3′H)-dione]
[1]; Table 1
  RH: 4.67 μL/min/10^6 cells

## Cc1n[nH]c2c(-c3cn(C(C)c4ccccc4)c(=O)[nH]c3=O)cccc12 (centres unmarked) [Compound 18, 5-(3-Methyl-1H-indazol-7-yl)-1-(1-phenylethyl)pyrimidine-2,4(1H,3H)-dione]
[3]; Table 2
  ADP-Glo assay LLE WT: 3.6
[1]; Table 2
  RH: 37.0 μL/min/10^6 cells

## CC(c1ccccc1)n1cc(-c2cc(F)cc3c(C#N)n[nH]c23)c(=O)[nH]c1=O (centres unmarked) [Compound 22, 7-(2,4-Dioxo-1-(1-phenylethyl)-1,2,3,4-tetrahydropyrimidin-5-yl)-5-fluoro-1H-indazole-3-carbonitrile]
[3]; Table 2
  ADP-Glo assay LLE WT: 3.8
[1]; Table 2
  RH: 51.4 μL/min/10^6 cells

## CC(c1ccccc1)n1cc(-c2cccc3c(C#N)n[nH]c23)c(=O)[nH]c1=O (centres unmarked) [Compound 19, 7-(2,4-Dioxo-1-(1-phenylethyl)-1,2,3,4-tetrahydropyrimidin-5-yl)-1H-indazole-3-carbonitrile]
[3]; Table 2
  ADP-Glo assay LLE WT: 3.4
[1]; Table 2
  RH: 41.4 μL/min/10^6 cells

## CC(c1ccccc1)n1cc(-c2ccccn2)c(=O)[nH]c1=O (centres unmarked) [Compound 12, 1-(1-Phenylethyl)-5-(pyridin-2-yl)pyrimidine-2,4(1H,3H)-dione]
[1]; Table 1
  RH: 300 μL/min/10^6 cells
[2]
  SPR assay LLE WT: 3.2

## CC(c1cccc(-c2c[nH]cn2)c1)n1cc(-c2cccc3cn[nH]c23)c(=O)[nH]c1=O (centres unmarked) [Compound 16, 1-(1-(3-(1H-Imidazol-5-yl)phenyl)ethyl)-5-(1H-indazol-7-yl)pyrimidine-2,4(1H,3H)-dione]
[1]; Table 1
  RH: 5.84 μL/min/10^6 cells
[2]
  SPR assay LLE WT: 4.1

## C#Cc1n[nH]c2c(-c3cn([C@@H](C)c4ccccc4)c(=O)[nH]c3=O)cc(F)cc12 [Compound 30, (S)-5-(3-Ethynyl-5-fluoro-1H-indazol-7-yl)-1-(1-phenylethyl)pyrimidine-2,4(1H,3H)-dione]
[1]; Table 3
  RH: 15.0 μL/min/10^6 cells
